# Read-outs that look alike come from different tables or passages of the source.
# Experiments:
# [1] = target: EGFR Del19/T790M/C797S (Homo sapiens, UniProt P00533, C797S/DEL746-750/T790M); assay: Biochemical EGFR kinase inhibition assay (Lance Ultra TR-FRET), triple mutant del19/T790M/C797S
# Protocol: (§1) Biochemical EGFR kinase assays were conducted using Lance Ultra time-resolved fluorescence resonance energy transfer (TR-FRET) technology from Perkin-Elmer. Compounds of the invention were initially diluted to 20 mM in 100% DMSO for storage and made into kinase buffer solution to create a compound concentration ranging from 0.003 μM and 10 μM.
# (§2) Each kinase reactions were incubated at room temperature for 1 hour and then stopped by the addition of 4 μL of stop solution (10 mM EDTA). The specific Europium-labeled-anti-phosphopeptide antibody (PerkinElmer, AD0069) diluted in LANCE detection buffer was then added to a final concentration of 2 nM. After 60 minutes incubation at room temperature the LANCE signal was measured on an EnVision Multilabel Reader (Perkin-Elmer). Excitation wavelength was set at 320 nm and emission monitored at 615 nm (donor) and 665 nm (acceptor). The IC50 values were determined using GraphPad prism software (GraphPad Software, Inc., San Diego, CA, USA).
# [2] = target: EGFR L858R/T790M/C797S (Homo sapiens, UniProt P00533, C797S/L858R/T790M); assay: Biochemical EGFR kinase inhibition assay (Lance Ultra TR-FRET), triple mutant L858R/T790M/C797S
# Sequence of EGFR L858R/T790M/C797S (P00533 25-1210 T790M/C797S/L858R): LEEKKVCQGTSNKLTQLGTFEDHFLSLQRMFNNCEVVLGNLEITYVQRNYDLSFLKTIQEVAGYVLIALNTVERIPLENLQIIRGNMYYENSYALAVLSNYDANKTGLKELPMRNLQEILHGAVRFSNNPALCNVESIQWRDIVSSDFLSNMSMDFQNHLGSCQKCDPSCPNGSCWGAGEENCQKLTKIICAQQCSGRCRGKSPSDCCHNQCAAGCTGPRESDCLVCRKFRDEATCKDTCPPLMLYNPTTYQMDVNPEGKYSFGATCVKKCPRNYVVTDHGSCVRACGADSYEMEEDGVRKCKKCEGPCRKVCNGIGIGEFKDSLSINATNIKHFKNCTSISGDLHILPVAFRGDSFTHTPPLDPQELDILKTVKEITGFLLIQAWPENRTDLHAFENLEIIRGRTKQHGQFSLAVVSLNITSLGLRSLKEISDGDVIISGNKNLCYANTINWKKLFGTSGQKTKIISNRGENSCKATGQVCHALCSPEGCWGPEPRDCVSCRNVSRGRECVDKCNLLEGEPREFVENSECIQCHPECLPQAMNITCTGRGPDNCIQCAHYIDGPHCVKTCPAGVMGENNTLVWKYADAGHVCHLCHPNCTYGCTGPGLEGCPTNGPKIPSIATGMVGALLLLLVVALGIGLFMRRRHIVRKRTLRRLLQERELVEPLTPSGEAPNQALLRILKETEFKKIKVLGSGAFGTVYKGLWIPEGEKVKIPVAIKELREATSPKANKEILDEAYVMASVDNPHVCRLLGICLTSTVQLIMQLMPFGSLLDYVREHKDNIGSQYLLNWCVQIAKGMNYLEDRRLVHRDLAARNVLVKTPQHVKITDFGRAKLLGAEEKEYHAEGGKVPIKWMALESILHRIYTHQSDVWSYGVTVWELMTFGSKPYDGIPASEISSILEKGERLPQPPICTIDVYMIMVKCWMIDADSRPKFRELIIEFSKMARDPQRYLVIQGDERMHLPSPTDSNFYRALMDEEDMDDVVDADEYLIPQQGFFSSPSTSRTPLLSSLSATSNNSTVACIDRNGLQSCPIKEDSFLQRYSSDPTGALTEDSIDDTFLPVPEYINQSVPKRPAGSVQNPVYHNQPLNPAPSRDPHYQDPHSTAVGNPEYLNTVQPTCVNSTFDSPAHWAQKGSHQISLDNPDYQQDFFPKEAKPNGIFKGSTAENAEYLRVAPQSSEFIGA
# Protocol: as §1, §2
# [3] = target: EGFR Del19/C797S (Homo sapiens, UniProt P00533, C797S/DEL746-750); assay: Biochemical EGFR kinase inhibition assay (Lance Ultra TR-FRET), double mutant del19/C797S
# Sequence of EGFR Del19/C797S (P00533 with tags, fused parts or gaps DEL746-750/C797S): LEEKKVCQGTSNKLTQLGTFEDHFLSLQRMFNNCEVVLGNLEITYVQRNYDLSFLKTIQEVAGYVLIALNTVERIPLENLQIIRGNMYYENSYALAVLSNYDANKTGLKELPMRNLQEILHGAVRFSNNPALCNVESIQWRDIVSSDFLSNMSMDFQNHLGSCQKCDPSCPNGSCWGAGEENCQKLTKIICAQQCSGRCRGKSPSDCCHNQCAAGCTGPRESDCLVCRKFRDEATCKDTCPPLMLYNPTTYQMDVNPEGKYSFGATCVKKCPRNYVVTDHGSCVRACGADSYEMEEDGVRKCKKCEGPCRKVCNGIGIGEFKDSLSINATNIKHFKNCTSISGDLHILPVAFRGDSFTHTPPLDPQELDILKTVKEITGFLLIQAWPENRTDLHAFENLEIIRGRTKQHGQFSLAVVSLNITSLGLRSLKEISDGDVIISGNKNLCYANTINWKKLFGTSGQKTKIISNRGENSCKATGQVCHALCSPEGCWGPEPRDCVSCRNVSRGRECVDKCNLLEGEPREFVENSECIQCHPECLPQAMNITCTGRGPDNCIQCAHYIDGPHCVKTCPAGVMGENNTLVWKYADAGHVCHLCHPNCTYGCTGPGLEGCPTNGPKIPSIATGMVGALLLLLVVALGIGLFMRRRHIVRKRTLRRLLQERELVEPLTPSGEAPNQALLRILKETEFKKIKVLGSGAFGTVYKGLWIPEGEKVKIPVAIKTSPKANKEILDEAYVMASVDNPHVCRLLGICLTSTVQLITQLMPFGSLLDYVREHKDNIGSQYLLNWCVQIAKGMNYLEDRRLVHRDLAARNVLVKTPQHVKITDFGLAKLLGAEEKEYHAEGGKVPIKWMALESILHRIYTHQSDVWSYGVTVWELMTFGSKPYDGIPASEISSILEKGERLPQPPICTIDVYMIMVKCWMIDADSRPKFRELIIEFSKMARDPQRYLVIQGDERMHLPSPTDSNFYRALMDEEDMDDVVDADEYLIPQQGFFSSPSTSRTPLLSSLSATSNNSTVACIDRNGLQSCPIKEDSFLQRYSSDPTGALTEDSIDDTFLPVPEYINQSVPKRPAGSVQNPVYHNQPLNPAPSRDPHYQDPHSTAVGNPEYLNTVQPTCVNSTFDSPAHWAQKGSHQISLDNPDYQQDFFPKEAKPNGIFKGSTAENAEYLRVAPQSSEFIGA
# Protocol: as §1, §2
# [4] = target: EGFR wildtype (WT) (Homo sapiens, UniProt P00533); assay: Biochemical EGFR kinase inhibition assay (Lance Ultra TR-FRET), wildtype
# Sequence of EGFR wildtype (WT) (P00533 25-1210): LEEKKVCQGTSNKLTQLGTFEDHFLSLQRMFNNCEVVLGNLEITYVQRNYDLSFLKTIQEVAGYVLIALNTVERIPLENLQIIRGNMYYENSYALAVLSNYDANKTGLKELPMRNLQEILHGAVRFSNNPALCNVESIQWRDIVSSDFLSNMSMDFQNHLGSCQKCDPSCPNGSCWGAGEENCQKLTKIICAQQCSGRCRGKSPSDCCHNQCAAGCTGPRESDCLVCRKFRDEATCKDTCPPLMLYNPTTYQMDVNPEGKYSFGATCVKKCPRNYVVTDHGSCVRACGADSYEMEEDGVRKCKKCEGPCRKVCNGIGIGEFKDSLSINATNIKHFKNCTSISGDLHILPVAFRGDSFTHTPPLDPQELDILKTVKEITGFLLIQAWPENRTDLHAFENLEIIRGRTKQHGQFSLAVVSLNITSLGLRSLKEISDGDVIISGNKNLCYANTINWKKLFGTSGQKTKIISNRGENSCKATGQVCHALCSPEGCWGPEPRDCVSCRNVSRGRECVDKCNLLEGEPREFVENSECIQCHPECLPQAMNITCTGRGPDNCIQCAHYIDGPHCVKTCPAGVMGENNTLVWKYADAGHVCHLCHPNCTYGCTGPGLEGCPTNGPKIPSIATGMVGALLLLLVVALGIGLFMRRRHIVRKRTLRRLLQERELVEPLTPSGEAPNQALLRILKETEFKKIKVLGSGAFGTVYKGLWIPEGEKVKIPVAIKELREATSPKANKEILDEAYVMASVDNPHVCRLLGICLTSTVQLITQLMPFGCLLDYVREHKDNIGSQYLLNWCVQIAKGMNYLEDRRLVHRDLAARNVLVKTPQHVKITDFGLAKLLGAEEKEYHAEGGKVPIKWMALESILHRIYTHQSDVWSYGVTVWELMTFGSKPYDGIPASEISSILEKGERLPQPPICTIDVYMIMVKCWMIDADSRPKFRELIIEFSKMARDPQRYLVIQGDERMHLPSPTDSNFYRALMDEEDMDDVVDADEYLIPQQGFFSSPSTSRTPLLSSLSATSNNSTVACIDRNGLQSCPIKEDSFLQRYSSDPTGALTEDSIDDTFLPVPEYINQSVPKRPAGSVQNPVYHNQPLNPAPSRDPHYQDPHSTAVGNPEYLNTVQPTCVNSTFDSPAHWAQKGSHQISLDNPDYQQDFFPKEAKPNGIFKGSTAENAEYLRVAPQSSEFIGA
# Protocol: as §1, §2
# [5] = Km ATP, read-out: IC50 Del19/T790M/C797S (nM) Km ATP
# [6] = Km ATP, read-out: IC50 L858R/T790M/C797S (nM) Km ATP
# [7] = Km ATP, read-out: IC50 Del19/C797S (nM) Km ATP
# [8] = ATP at Km, read-out: IC50 Del19/T790M/C797S (nM), Km ATP
# [9] = ATP at Km, read-out: IC50 Del19/C797S (nM), Km ATP
# [10] = ATP at Km, read-out: IC50 WT (nM), Km ATP
# [11] = Km ATP, read-out: IC50 WT (nM) Km ATP
# [12] = IC50 Del19/T790M/C797S (nM), 100 μM ATP
# [13] = IC50 L858R/T790M/C797S (nM), 100 μM ATP
# [14] = IC50 Del19/C797S (nM), 100 μM ATP
# Sequence of EGFR Del19/T790M/C797S (P00533 with tags, fused parts or gaps DEL746-750/T790M/C797S): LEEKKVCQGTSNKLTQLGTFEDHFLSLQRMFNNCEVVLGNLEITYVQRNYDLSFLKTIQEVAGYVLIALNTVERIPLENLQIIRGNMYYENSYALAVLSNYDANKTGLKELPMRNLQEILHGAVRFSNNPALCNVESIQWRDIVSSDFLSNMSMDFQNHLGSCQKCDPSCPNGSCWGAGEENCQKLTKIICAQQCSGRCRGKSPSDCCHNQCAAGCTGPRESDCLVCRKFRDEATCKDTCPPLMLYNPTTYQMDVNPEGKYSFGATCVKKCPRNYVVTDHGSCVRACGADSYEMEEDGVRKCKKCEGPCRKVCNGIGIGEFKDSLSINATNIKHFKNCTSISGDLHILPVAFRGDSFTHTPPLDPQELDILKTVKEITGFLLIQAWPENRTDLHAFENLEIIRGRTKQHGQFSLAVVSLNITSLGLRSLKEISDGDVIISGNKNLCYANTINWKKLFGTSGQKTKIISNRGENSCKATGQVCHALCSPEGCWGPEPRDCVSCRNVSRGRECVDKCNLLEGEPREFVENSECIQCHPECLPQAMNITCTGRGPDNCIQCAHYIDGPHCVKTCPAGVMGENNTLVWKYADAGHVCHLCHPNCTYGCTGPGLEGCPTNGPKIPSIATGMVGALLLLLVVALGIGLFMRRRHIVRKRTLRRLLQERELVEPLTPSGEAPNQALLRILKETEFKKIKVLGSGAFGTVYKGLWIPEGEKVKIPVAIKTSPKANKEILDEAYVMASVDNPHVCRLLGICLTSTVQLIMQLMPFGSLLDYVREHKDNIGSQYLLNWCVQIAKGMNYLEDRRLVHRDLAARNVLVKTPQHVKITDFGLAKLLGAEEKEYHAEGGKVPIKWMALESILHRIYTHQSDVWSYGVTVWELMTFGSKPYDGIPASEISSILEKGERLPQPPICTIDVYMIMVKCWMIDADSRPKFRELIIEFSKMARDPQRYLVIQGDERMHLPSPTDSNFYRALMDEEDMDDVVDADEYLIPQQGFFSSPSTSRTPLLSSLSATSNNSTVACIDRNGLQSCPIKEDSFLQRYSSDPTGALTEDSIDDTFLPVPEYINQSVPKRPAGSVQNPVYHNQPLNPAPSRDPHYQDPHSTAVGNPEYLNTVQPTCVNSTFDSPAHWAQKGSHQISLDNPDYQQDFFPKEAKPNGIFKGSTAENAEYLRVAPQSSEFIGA
"IC50 [1, 5]","IC50 [2, 6]","IC50 [3, 7]","IC50 [1, 8]","IC50 [3, 9]","IC50 [4, 10]","IC50 [4, 11]","IC50 [1, 12]","IC50 [2, 13]","IC50 [3, 14]","IC50 ([4]; IC50 WT (nM), 100 μM ATP)",Compound
,,,18.3 nM,265 nM,587 nM,,,,,,"CC(C)Nc1cc(Nc2ccnc(-c3cnn(S(=O)(=O)C4CC4)c3)n2)ncc1C#Cc1csc(C2CC2)n1 [Example 205, N^2-(2-(1-(Cyclopropylsulfonyl)-1H-pyrazol-4-yl)pyrimidin-4-yl)-5-((2-cyclopropylthiazol-4-yl)ethynyl)-N^4-isopropylpyridine-2,4-diamine]"
2.8 nM,5.4 nM,122 nM,,,,630 nM,,,,,"COCCC#Cc1cnc(Nc2ccnc(-c3cnn(S(=O)(=O)C4CC4)c3)n2)cc1NC(C)C [Example 22, N^2-(2-(1-(Cyclopropylsulfonyl)-1H-pyrazol-4-yl)pyrimidin-4-yl)-N^4-isopropyl-5-(4-methoxybut-1-yn-1-yl)pyridine-2,4-diamine]"
4.5 nM,15.5 nM,299 nM,,,,1340 nM,,,,,"Cn1cc(C#Cc2cnc(Nc3ccnc(-c4cnn(S(=O)(=O)C5CC5)c4)n3)cc2-c2cnn(C)c2)cn1 [Example 233, 2-(1-(Cyclopropylsulfonyl)-1H-pyrazol-4-yl)-N-(4-(1-methyl-1H-pyrazol-4-yl)-5-((1-methyl-1H-pyrazol-4-yl)ethynyl)pyridin-2-yl)pyrimidin-4-amine]"
,,,,,,,5.2 nM,12.2 nM,197 nM,> 10000 nM,"Cc1nc(C#Cc2cnc(Nc3ccnc(-c4cnn(S(=O)(=O)C5CC5)c4)n3)cc2N[C@H]2CC[C@H](O)C2)cs1 [Example 222, (1 S,3S)-3-((2-((2-(1-(Cyclopropylsulfonyl)-1H-pyrazol-4-yl)pyrimidin-4-yl)amino)-5-((2-methylthiazol-4-yl)ethynyl)pyridin-4-yl)amino)cyclopentan-1-ol]"
20.2 nM,,,,,,435 nM,,,870 nM,> 10000 nM,"CN(CCO)c1cc(Nc2ccnc(-c3cnn(S(=O)(=O)C4CC4)c3)n2)ncc1C#Cc1cnn(C)c1 [Example 37, 2-((2-((2-(1-(Cyclopropylsulfonyl)-1H-pyrazol-4-yl)pyrimidin-4-yl)amino)-5-((1-methyl-1H-pyrazol-4-yl)ethynyl)pyridin-4-yl)(methyl)amino)ethan-1-ol]"
4.5 nM,,68.6 nM,,,,145 nM,3.3 nM,10.1 nM,165 nM,> 10000 nM,"O=S(=O)(C1CC1)n1cc(-c2nccc(Nc3cc(N4CCN(CCO)CC4)c(C#Cc4cnn(CCF)c4)cn3)n2)cn1 [Example 16, 2-(4-(2-((2-(1-(Cyclopropylsulfonyl)-1H-pyrazol-4-yl)pyrimidin-4-yl)amino)-5-((1-(2-fluoroethyl)-1H-pyrazol-4-yl)ethynyl)pyridin-4-yl)piperazin-1-yl)ethan-1-ol]"
4.7 nM,13.2 nM,311 nM,,,,2220 nM,,,,,"Cn1cc(C#Cc2cnc(Nc3ccnc(-c4cnn(S(=O)(=O)C5CC5)c4)n3)cc2-c2cnn(C3CC3)c2)cn1 [Example 235, N-(4-(1-Cyclopropyl-1H-pyrazol-4-yl)-5-((1-methyl-1H-pyrazol-4-yl)ethynyl)pyridin-2-yl)-2-(1-(cyclopropylsulfonyl)-1H-pyrazol-4-yl)pyrimidin-4-amine]"
,,,5.1 nM,56 nM,107 nM,,3.5 nM,8.1 nM,120 nM,> 10000 nM,"CC(C)Nc1cc(Nc2ccnc(-c3cnn(S(=O)(=O)C4CC4)c3)n2)ncc1C#CCCCC(=O)N1CCOCC1 [Example 208, 6-(6-((2-(1-(Cyclopropylsulfonyl)-1H-pyrazol-4-yl)pyrimidin-4-yl)amino)-4-(isopropylamino)pyridin-3-yl)-1-morpholinohex-5-yn-1-one]"
,,,12.6 nM,350 nM,4100 nM,,11.3 nM,29.8 nM,1000 nM,> 10000 nM,"CC(C)Nc1cc(Nc2ccnc(-c3cnn(S(=O)(=O)C4CC4)c3)n2)ncc1C#Cc1csc(CF)n1 [Example 200, N^2-(2-(1-(cyclopropylsulfonyl)-1H-pyrazol-4-yl)pyrimidin-4-yl)-5-((2-(fluoromethyl)thiazol-4-yl)ethynyl)-N^4-isopropylpyridine-2,4-diamine]"
4.1 nM,16.1 nM,214 nM,,,,1010 nM,,,,,"Cn1cc(-c2cc(Nc3ccnc(-c4cnn(S(=O)(=O)C5CC5)c4)n3)ncc2C#Cc2cnn(CCF)c2)cn1 [Example 234, 2-(1-(Cyclopropylsulfonyl)-1H-pyrazol-4-yl)-N-(5-((1-(2-fluoroethyl)-1H-pyrazol-4-yl)ethynyl)-4-(1-methyl-1H-pyrazol-4-yl)pyridin-2-yl)pyrimidin-4-amine]"
6.6 nM,,240 nM,,,,3830 nM,,,,,"CCS(=O)(=O)N1CCN(c2cc(Nc3ccnc(-c4cnn(S(=O)(=O)C5CC5)c4)n3)ncc2C#Cc2cnn(C)c2)CC1 [Example 3, 2-(1-(Cyclopropylsulfonyl)-1H-pyrazol-4-yl)-N-(4-(4-(ethylsulfonyl)piperazin-1-yl)-5-((1-methyl-1H-pyrazol-4-yl)ethynyl)pyridin-2-yl)pyrimidin-4-amine]"
5.5 nM,16.5 nM,232 nM,,,,2720 nM,,,,,"O=S(=O)(C1CC1)n1cc(-c2nccc(Nc3cc(-c4cnn(C5CC5)c4)c(C#Cc4cnn(CCF)c4)cn3)n2)cn1 [Example 237, N-(4-(1-Cyclopropyl-1H-pyrazol-4-yl)-5-((1-(2-fluoroethyl)-1H-pyrazol-4-yl)ethynyl)pyridin-2-yl)-2-(1-(cyclopropylsulfonyl)-1H-pyrazol-4-yl)pyrimidin-4-amine]"
4.4 nM,2.3 nM,41.8 nM,,,,1680 nM,5.4 nM,3.7 nM,140 nM,> 10000 nM,"CC(C)Nc1cc(Nc2ccnc(-c3cnn(S(=O)(=O)C4CC4)c3)n2)ncc1C#Cc1cnn(C(C)C)c1 [Example 19, N^2-(2-(1-(Cyclopropylsulfonyl)-1H-pyrazol-4-yl)pyrimidin-4-yl)-N^4-isopropyl-5-((1-isopropyl-1H-pyrazol-4-yl)ethynyl)pyridine-2,4-diamine]"
,,,3.5 nM,69.1 nM,201 nM,,,,,,"CC(C)Nc1cc(Nc2ccnc(-c3cnn(S(=O)(=O)C4CC4)c3)n2)ncc1C#CC1CCOCC1 [Example 206, N^2-(2-(1-(Cyclopropylsulfonyl)-1H-pyrazol-4-yl)pyrimidin-4-yl)-N^4-isopropyl-5-((tetrahydro-2H-pyran-4-yl)ethynyl)pyridine-2,4-diamine]"
17.6 nM,,,,,,368 nM,,,464 nM,> 10000 nM,"CN(CCO)c1cc(Nc2ccnc(-c3cnn(S(=O)(=O)C4CC4)c3)n2)ncc1C#Cc1cnn(CCF)c1 [Example 38, 2-((2-((2-(1-(Cyclopropylsulfonyl)-1H-pyrazol-4-yl)pyrimidin-4-yl)amino)-5-((1-(2-fluoroethyl)-1H-pyrazol-4-yl)ethynyl)pyridin-4-yl)(methyl)amino)ethan-1-ol]"
11.3 nM,45.3 nM,359 nM,,,,,,,,,"CC(C)n1cc(C#Cc2cnc(Nc3ccnc(-c4cnn(S(=O)(=O)C5CC5)c4)n3)cc2-c2cnn(C3CC3)c2)cn1 [Example 236, N-(4-(1-cyclopropyl-1H-pyrazol-4-yl)-5-((1-isopropyl-1H-pyrazol-4-yl)ethynyl)pyridin-2-yl)-2-(1-(cyclopropylsulfonyl)-1H-pyrazol-4-yl)pyrimidin-4-amine]"
,,,22.7 nM,,264 nM,,,,187 nM,> 10000 nM,"CC(C)Nc1cc(Nc2ccnc(-c3cnn(S(=O)(=O)C4CC4)c3)n2)ncc1C#CC(C)(C)O [Example 204, 4-(6-((2-(1-(Cyclopropylsulfonyl)-1H-pyrazol-4-yl)pyrimidin-4-yl)amino)-4-(isopropylamino)pyridin-3-yl)-2-methylbut-3-yn-2-ol]"

Compound,"IC50 [1, 5]","IC50 [2, 6]","IC50 [3, 7]","IC50 [1, 8]","IC50 [3, 9]","IC50 [4, 10]","IC50 [4, 11]","IC50 [1, 12]","IC50 [2, 13]","IC50 [3, 14]","IC50 ([4]; IC50 WT (nM), 100 μM ATP)"
"CCC(C)Oc1cc(Nc2ccnc(-c3cnn(S(=O)(=O)C4CC4)c3)n2)ncc1C#Cc1cnn(C(C)C)c1 (stereo not drawn) [Example 57, N-(4-(sec-Butoxy)-5-((1-isopropyl-1H-pyrazol-4-yl)ethynyl)pyridin-2-yl)-2-(1-(cyclopropylsulfonyl)-1H-pyrazol-4-yl)pyrimidin-4-amine]",13.9 nM,26.1 nM,493 nM,,,,,,,,
"CCC(C)Oc1cc(Nc2ccnc(-c3cnn(S(=O)(=O)C4CC4)c3)n2)ncc1C#Cc1cnn(C)c1 (stereo not drawn) [Example 56, N-(4-(sec-Butoxy)-5-((1-methyl-1H-pyrazol-4-yl)ethynyl)pyridin-2-yl)-2-(1-(cyclopropylsulfonyl)-1H-pyrazol-4-yl)pyrimidin-4-amine]",7.6 nM,24.2 nM,291 nM,,,,> 10000 nM,,,,
